As usually defined, the IC50 is the concentration at which inhibition is half-maximal. The Cmax is the peak of the concentration-time curve.

In data set [1] the test system is K562/DOX cells. In words: Drug efflux study (DOX retained, flow cytometry), K562/DOX cells. The format is cell-based. As to conditions: 10 μg/mL DOX loaded 4 h at 37 °C, then free medium. As for the experimental part: In order to determine DOX efflux, K562 and K562/DOX cells were seeded and incubated in 12-well plates (1 × 10^5 cells/well). Different DOX formulations diluted with fresh medium to a concentration of 10 μg/mL were incubated with K562 and K562/DOX cells for 4 h at 37 °C. Subsequently, the cells were washed three times with ice-cold PBS, and then incubated with free medium at another 0.5, 1, 2, and 4 h. Ice-cold PBS was used to wash the cells at the end of each incubation time. The amounts of DOX retained in cells were determined by flow cytometry. The investigation was carried out in triplicate.
Background: Flow cytometry measures light scatter and fluorescence of single cells or particles in a stream.

Data set [2] has as its system K562/DOX cells. The data set is described as follows: MTT assay of combinatorial effects of MTO and βE in different mass ratios. As to conditions: Homo sapiens, 48 h of incubation. In kind it is cell-based. Here is the method:
The combinatorial effects of MTO and βE in different ratios (w/w) were assessed against K562/DOX through MTT assay. With a density of 5 × 10^3 cells/well, K562/DOX cells were seeded in 96-well plates and incubated for 48 h, then treated with different concentrations of MTO dissolved in the free medium of RPMI-1640, βE dissolved in the mixture of (RPMI-1640 and 0.5% DMSO), and different combination mass ratios of MTO/βE (10:1, 5:1, 2:1, 1:1, 1:2, 1:5, and 1:10 w/w). After 48 h of incubation, cells were washed twice with cold PBS, and then incubated again for 4 h with 20 µL of MTT solution (5 mg/mL) added to each well. In order to solubilize the formazan crystals, 150 μL of DMSO per well was added to replace the medium. Finally, a Microplate Reader (Biotech, Winooski, VT, USA) was used to measure the UV absorbance intensity at 570 nm. Each measurement was performed in triplicate. The cell viability percentage was evaluated using the following equation: Cell Viability (%)=ODsample /ODcontrol×100% where ODSample stands for the optical density (absorbance intensity) of the cells treated with MTO, βE, or MTO in combination with βE, while ODControl is the absorbance intensity of the untreated cells. […] The synergistic effect of different combinations of MTO and βE was assessed through the calculation of combination index (CI) using the equation of Chou and Talalay. […]
On the technique in general: Tetrazolium assays rely on reduction of a dye to a coloured formazan, in cell work by metabolically active cells.

Data set [3] relates to K562/DOX cells. In words: MTT cytotoxicity of MTO formulations in K562/DOX cells. The format is cell-based. As to conditions: for IC50: Homo sapiens, K562/DOX cells, n = 3. Here is the method: (§1) A cytotoxicity study of MTO, MTO/βE, MTO-SLNs, and MTO/βE-SLNs was also carried out by MTT assay in both K562 and K562/DOX cells lines. K562 cells and K562/DOX cells were seeded in a 96-well plate at a density of 5 × 10^3 cells/well and incubated for 48 h. Then, the cells were treated with MTO, MTO/βE, MTO-SLNs, and MTO/βE-SLNs at different doses (total amount of MTO in SLNs: 0.01, 0.1, 1, 2.5, 5, and 10 μg/mL in K562 cells and 0.1, 1, 10, 20, 40, and 80 μg/mL in K562/DOX cells for 48 h. After 48 h of incubation, cells were washed twice with cold PBS then incubated again for 4 h with 20 µL of MTT solution (5 mg/mL) added to each well. In order to solubilize the formazan crystals, 150 μL of DMSO per well was added to replace the medium. Finally, a Microplate Reader (Biotech) was used to measure the UV absorbance intensity at 570 nm. Each measurement was performed in triplicate. The cell viability percentage was evaluated using the following equation [4, 10]: Cell Viability (%)=ODsample /ODcontrol×100% where ODsample stands for the absorbance intensity of the cells treated with MTO, MTO/βE, MTO-SLNs, and MTO/βE-SLNs, while ODControl is the absorbance intensity of the untreated cells. The 50% inhibition concentrations (IC50) of different agents were calculated by Graph Pad Prism 5.0 software. All experiments were in triplicate and the results were given as means ± SD.
(§2) The different effects of drug formulations on K562/DOX were evaluated in the MDR reversal capacities through the index of drug resistance (IDR) and index of reversal of drug resistance (IRDR). IDR and IRDR were calculated as follows: IDR=IC50of other formulation against K562/DOX cells/IC50of MTO against K562 CellsIRDR=IC50of MTO against K562 cells /IC50of other formulation against K562/DOX cells

The next data set deals with K562 cells. In words: MTT cytotoxicity of MTO formulations in K562 cells. As to conditions: n = 3; for IC50: Homo sapiens, K562, 48 h. In kind it is cell-based. Here is the method:
as §1, §2

Data set [4] can be described thus: Pharmacokinetics after intravenous administration. The format is in vivo, SD rats. As to conditions: rats; for AUC(0-t) / Cmax / half-life: male, Sprague-Dawley (SD), rat, plasma; for time post injection after which no drug was observed in plasma: free drug. As for the experimental part: All the preparations were administered intravenously into the tail vein at a dose of 2 mg/kg (n = 6) for MTO and 4 mg/kg (n = 6) for βE. The blood samples were taken with a heparinized syringe at 0.5, 1, 2, 4, 6, 8, 12, and 24 h.

The subject of data set [5] is K562/DOX xenografts tumors. The data set is described as follows: In vivo antitumor activity in K562/DOX xenograft tumor model. As to conditions: during treatment, compared with saline. Also noted: species or system BALB/c nude mice. As for the experimental part: Mice bearing K562/DOX xenografts tumors were used to evaluate different MTO formulations through an in vivo antitumor efficacy study. K562/DOX cells at a concentration of 1 × 10^7 cells/mice with a volume of 200 μL were injected into the left axilla of BALB/c nude mice. After inoculation of cells, the growth of tumor was observed every two days by measuring the diameter of tumor with Vernier caliper. The tumor volume was calculated as (L × W^2)/2, where L and W are the tumor length and width, respectively. The anti-tumor evaluation was started when tumor volume reached about 100 mm^3, and this day was designated as day 0. Mice were randomly divided in five groups of six: Saline, MTO, MTO/βE, MTO-SLNs, and MTO/βE-SLNs (MTO dosage: 2 mg/kg and βE dosage: 4 mg/kg). The injections were carried out on days 0, 3, 6, 9, and 12 via the tail vein. In order to evaluate the treatment efficacy and safety, mice were sacrificed, and then tumors, heart, lung, liver, kidney, and spleen were dissected and fixed in 4% paraformaldehyde. In order to observe the pathological changes in different tissues, samples were cut and stained with hematoxylin and eosin (H&E) for histological analyses. An optical microscope (Leica DMI6000 B, Wetzlar, Germany) was used to take different photos. […]

For data set [6], the system named is K562/DOX cells. The data set is described as follows: Intracellular ATP production assay. The format is cell-based. As to conditions: 8 h at 37 °C. As for the experimental part: An ATP assay kit was used to measure the intracellular ATP. K562/DOX cells at a density of 1 × 10^5 cells/well were seeded and cultured in 12-well plates and incubated for 24 h. The cells were then incubated with fresh medium containing MTO, MTO/βE, MTO-SLNs, and MTO/βE-SLNs for 8 h at 37 °C. The cell ATP content was determined based on the manufacturer’s protocol. Briefly, the cells were collected and lysed by 200 μL of lysis solution to obtain the cell lysate, followed by centrifugation at 12,000× g for 5 min at 4 °C. Next, 20 μL of the supernatant of each sample was mixed with 100 μL of ATP testing solution in a black 96-well plate, and kept for 10 min. A microplate luminometer (Luminoskan, Thermo Scientific, Waltham, MA, USA) was used to measure the luminescence intensity. The raw data were converted to ATP concentrations using the standard ATP calibration.

The test system of the next data set is K562/A02 cells. More on the design: method as in PMID 29453043. As to conditions: cited from earlier work.

Converted amounts (≈) assume the structure as drawn. Read-outs that look alike come from different tables or passages of the source.

In the case of `COc1cccc2c1C(=O)c1c(O)c3c(c(O)c1C2=O)C[C@@](O)(C(=O)CO)C[C@@H]3O[C@H]1C[C@H](N)[C@H](O)[C@H](C)O1` [DOX, doxorubicin], the “DOX that underwent efflux” value in the data set with K562/DOX cells [1] is “about 90%”.
Turning to `Cl.Cl.O=C1c2c(O)ccc(O)c2C(=O)c2c(NCCNCCO)ccc(NCCNCCO)c21` [MTO, 1,4-dihydroxy-5,8-bis[[2-[(2-hydroxyethyl)amino]ethyl]amino] anthraquinone dihydrochloride], the IC50 turned out to be 48.2 µg/mL in the data set with K562/DOX cells [2] (n = 3, concentration of MTO alone or in the combination, read-out: IC50 MTO); 48.2 µg/mL with K562/DOX cells [3] (48 h); 5.02 µg/mL with K562 cells. Besides, the “cell survival rate of K562/DOX cells” value with K562/DOX cells [3] (concentration of MTO 10 μg/mL, 48 h) is listed as 81.43%. The “survival ratio in K562/DOX cells” value in the data set on K562/DOX cells [3] (concentration of MTO 80 μg/mL, 48 h) worked out at 24.06%. For the same molecule, the “IDR (index of drug resistance)” value with K562/DOX cells [3] (from IC50 in K562/DOX and K562 cells) is 9.59. Besides, the “IC50 K562” value in the data set with K562 cells (48 h) came out at 5.025 µg/mL. Also, in data set [4] (2 mg/kg MTO, n = 6, read-out: AUC0–24 of MTO), the AUC(0-t) worked out at 1180 ± 150 ng·h/mL. Further, in data set [4] (2 mg/kg MTO, n = 6, read-out: Cmax of MTO), the Cmax came out at 3450 ± 580 ng/mL. Besides, the half-life in data set [4] (2 mg/kg MTO, n = 6, read-out: T1/2 of MTO (converted)) was 1.53 ± 0.33 h. Moreover, the “time post injection after which no drug was observed in plasma” value in data set [4] amounted to 6 h. Further, the “body weight of mice” value in data set [5] is listed as “decreased remarkably”.
As for `C=CC1(C)CCC(C(=C)C)CC1C(=C)C` (stereo not shown) [βE, 1-methyl-1-vinyl-2,4-diisopropenyl-cyclohexane], the IC50 in the data set with K562/DOX cells [2] (n = 3, concentration of βE alone or in the combination, read-out: IC50 βE) turned out to be 140 µg/mL; in the data set with K562/DOX cells [3] (48 h) it was 140 µg/mL (≈ 687 µM); in the data set on K562 cells, 122 µg/mL (≈ 598 µM). Also, the “effect on intracellular ATP” value in the data set with K562/DOX cells [6] is on record as “significant inhibitory capacity”. Further, the AUC(0-t) in data set [4] (4 mg/kg βE, n = 6, read-out: AUC0–24 of βE) came out at 4860 ± 1760 ng·h/mL. The Cmax in data set [4] (4 mg/kg βE, n = 6, read-out: Cmax of βE) came out at 6680 ± 1210 ng/mL. Moreover, the half-life in data set [4] (4 mg/kg βE, n = 6, read-out: T1/2 of βE (converted)) is 2.9 ± 0.45 h. For the same molecule, the “time post injection after which no drug was observed in plasma” value in data set [4] stood at 12 h.
Regarding ethyl lucidenates-A, the “reversal of resistance of K562/A02 cells to vincristine” value with K562/A02 cells is 7.59 fold.

Values taken from paper PMC7076650, “Co-Encapsulation of Mitoxantrone and β-Elemene in Solid Lipid Nanoparticles to Overcome Multidrug Resistance in Leukemia” (Pharmaceutics, 2020).
